pIC50: −log10 of the molar value. One block for each compound: values may come before it.
Columns and labels:
Autotaxin [1] = target: T1, Autotaxin (Homo sapiens, UniProt Q13822); test: Inhibition of human ENPP2 using bis-pNPP as substrate measured every 10 secs for 10 mins by spectrophotometric assay
Autotaxin [2] = target: T1, Autotaxin; test: Inhibition of human ENPP2 using FS3 as substrate measured every 5 mins for 30 mins by fluorescence assay
Rattus norvegicus [3] = test: Dose normalized AUC in Sprague-Dawley rat at 20 mg/kg, iv administered as single bolus dose by HPLC-MS/MS analysis; format: ADME, organism-based; conditions: in vivo
Rattus norvegicus [4] = test: Dose normalized Cmax in Sprague-Dawley rat at 2 mg/kg, iv administered as single bolus dose by HPLC-MS/MS analysis; format: ADME, organism-based; conditions: in vivo
[5] = Clearance in Sprague-Dawley rat at 10 mg/kg, iv administered as single bolus dose by HPLC-MS/MS analysis; format: ADME, organism-based; conditions: in vivo
Autotaxin [6] = target: T1, Autotaxin; test: Inhibition of ENPP2 in human SKHEP1 cells using LPC as substrate preincubated for 15 mins followed by substrate addition measured after 3 hrs by LC-MS/MS analysis; format: cell-based
Rattus norvegicus [7] = test: Dose normalized AUC in Sprague-Dawley rat at 2 mg/kg, iv administered as single bolus dose by HPLC-MS/MS analysis; format: ADME, organism-based; conditions: in vivo
[8] = Volume of distribution at steady state in Sprague-Dawley rat at 20 mg/kg, iv administered as single bolus dose by HPLC-MS/MS analysis; format: ADME, organism-based; conditions: in vivo, read-out: Vdss
[9] = Tmax in Sprague-Dawley rat at 20 mg/kg, iv administered as single bolus dose by HPLC-MS/MS analysis; format: ADME, organism-based; conditions: in vivo
[10] = Tmax in Sprague-Dawley rat at 2 mg/kg, iv administered as single bolus dose by HPLC-MS/MS analysis; format: ADME, organism-based; conditions: in vivo
[11] = Volume of distribution at steady state in Sprague-Dawley rat at 10 mg/kg, iv administered as single bolus dose by HPLC-MS/MS analysis; format: ADME, organism-based; conditions: in vivo, read-out: Vdss
[12] = Terminal half life in Sprague-Dawley rat at 2 mg/kg, iv administered as single bolus dose by HPLC-MS/MS analysis; format: ADME, organism-based; conditions: in vivo, read-out: beta t1/2 (converted)
[13] = AUC in Sprague-Dawley rat at 2 mg/kg, iv administered as single bolus dose by HPLC-MS/MS analysis; format: ADME, organism-based; conditions: in vivo
Autotaxin [14] = target: T1, Autotaxin; test: Inhibition of ENPP2 in human plasma using LPC as substrate preincubated for 15 mins followed by substrate addition measured after 3 hrs by LC-MS/MS analysis
[15] = Metabolic stability in human liver microsomes assessed as parent compound remaining at 5 uM preincubated for 10 mins followed by NADPH addition measured after 60 mins by LC-MS/MS analysis; format: ADME, microsome; conditions: read-out: Stability
[16] = AUC in Sprague-Dawley rat at 10 mg/kg, iv administered as single bolus dose by HPLC-MS/MS analysis; format: ADME, organism-based; conditions: in vivo
[17] = Cmax in Sprague-Dawley rat at 2 mg/kg, iv administered as single bolus dose by HPLC-MS/MS analysis; format: ADME, organism-based; parameters: dose 2 mg/kg, route intravenous; conditions: in vivo
[18] = Terminal half life in Sprague-Dawley rat at 10 mg/kg, iv administered as single bolus dose by HPLC-MS/MS analysis; format: ADME, organism-based; conditions: in vivo, read-out: beta t1/2 (converted)
[19] = Half life in Sprague-Dawley rat liver microsomes at 5 uM preincubated for 10 mins followed by NADPH addition measured up to 60 mins by LC-MS/MS analysis; format: ADME, microsome
[20] = Clearance in Sprague-Dawley rat at 20 mg/kg, iv administered as single bolus dose by HPLC-MS/MS analysis; format: ADME, organism-based; conditions: in vivo
[21] = Clearance in Sprague-Dawley rat at 2 mg/kg, iv administered as single bolus dose by HPLC-MS/MS analysis; format: ADME, organism-based; conditions: in vivo
Rattus norvegicus [22] = test: Dose normalized Cmax in Sprague-Dawley rat at 10 mg/kg, iv administered as single bolus dose by HPLC-MS/MS analysis; format: ADME, organism-based; conditions: in vivo
Autotaxin [23] = target: T1, Autotaxin; test: Inhibition of ENPP2 in human A2058 cells using LPC as substrate preincubated for 15 mins followed by substrate addition measured after 3 hrs by LC-MS/MS analysis; format: cell-based
[24] = Cmax in Sprague-Dawley rat at 10 mg/kg, iv administered as single bolus dose by HPLC-MS/MS analysis; format: ADME, organism-based; parameters: dose 10 mg/kg, route intravenous; conditions: in vivo
[25] = Terminal half life in Sprague-Dawley rat at 20 mg/kg, iv administered as single bolus dose by HPLC-MS/MS analysis; format: ADME, organism-based; conditions: in vivo, read-out: beta t1/2 (converted)
Rattus norvegicus [26] = test: Dose normalized Cmax in Sprague-Dawley rat at 20 mg/kg, iv administered as single bolus dose by HPLC-MS/MS analysis; format: ADME, organism-based; conditions: in vivo
[27] = Half life in human liver microsomes at 5 uM preincubated for 10 mins followed by NADPH addition measured up to 60 mins by LC-MS/MS analysis; format: ADME, microsome
Rattus norvegicus [28] = test: Dose normalized AUC in Sprague-Dawley rat at 10 mg/kg, iv administered as single bolus dose by HPLC-MS/MS analysis; format: ADME, organism-based; conditions: in vivo
[29] = Metabolic stability in Sprague-Dawley rat liver microsomes assessed as parent compound remaining at 5 uM preincubated for 10 mins followed by NADPH addition measured after 60 mins by LC-MS/MS analysis; format: ADME, microsome; conditions: read-out: Stability
[30] = Cmax in Sprague-Dawley rat at 20 mg/kg, iv administered as single bolus dose by HPLC-MS/MS analysis; format: ADME, organism-based; parameters: dose 20 mg/kg, route intravenous; conditions: in vivo
[31] = AUC in Sprague-Dawley rat at 20 mg/kg, iv administered as single bolus dose by HPLC-MS/MS analysis; format: ADME, organism-based; conditions: in vivo
[32] = Volume of distribution at steady state in Sprague-Dawley rat at 2 mg/kg, iv administered as single bolus dose by HPLC-MS/MS analysis; format: ADME, organism-based; conditions: in vivo, read-out: Vdss
[33] = Tmax in Sprague-Dawley rat at 10 mg/kg, iv administered as single bolus dose by HPLC-MS/MS analysis; format: ADME, organism-based; conditions: in vivo

pIC50 (Autotaxin [1]): 8.51
pIC50 (Autotaxin [2]): 8.71
Structure (SMILES): O=C(Nc1ccc(CP(=O)(O)O)cc1)C1CCN(C(=O)OCc2ccc(OC(F)(F)F)cc2)CC1

pIC50 (Autotaxin [1]): 6.60
pIC50 (Autotaxin [2]): 8.05
Structure (SMILES): NS(=O)(=O)Nc1ccc(NC(=O)C2CCN(C(=O)OCc3cc(Cl)cc(Cl)c3)CC2)cc1

pIC50 (Autotaxin [1]): 6.36
pIC50 (Autotaxin [2]): 8.07
Structure (SMILES): O=C(O)Cc1ccc(NC(=O)C2CCN(C(=O)OCc3cc(Cl)cc(Cl)c3)CC2)cc1

pIC50 (Autotaxin [1]): 8.28
pIC50 (Autotaxin [2]): 8.87
Structure (SMILES): O=C(NC1CCN(C(=O)OCc2cc(Cl)cc(Cl)c2)CC1)c1ccc(CP(=O)(O)O)cc1

pIC50 (Autotaxin [1]): 6.34
pIC50 (Autotaxin [2]): 8.15
Structure (SMILES): O=C(Nc1ccc(CP(=O)(O)O)cc1)C1CCN(C(=O)OCc2ccccc2F)CC1

pIC50 (Autotaxin [1]): 7.13
pIC50 (Autotaxin [2]): 8.34
Structure (SMILES): NS(=O)(=O)Cc1ccc(NC(=O)C2CCN(C(=O)OCc3cc(Cl)cc(Cl)c3)CC2)cc1

pIC50 (Autotaxin [1]): 6.59
pIC50 (Autotaxin [2]): 8.14
Structure (SMILES): O=C(Nc1ccc(CP(=O)(O)O)cc1)C1CCN(C(=O)OCc2ccccc2)CC1

pIC50 (Autotaxin [1]): 7.40
pIC50 (Autotaxin [2]): 8.75
Structure (SMILES): O=C(Nc1ccc(CP(=O)(O)O)cc1)C1CCN(C(=O)OCc2cccc(Cl)c2)CC1

pIC50 (Autotaxin [1]): 7.58
pIC50 (Autotaxin [2]): 8.76
Structure (SMILES): O=C(Nc1nc(CP(=O)(O)O)cs1)C1CCN(C(=O)OCc2cc(Cl)cc(Cl)c2)CC1

pIC50 (Autotaxin [1]): 8.56
pIC50 (Autotaxin [2]): 8.78
Structure (SMILES): O=C(Nc1ccc(CP(=O)(O)O)cc1)C1CCN(C(=O)OCc2ccc(OC(F)(F)F)cc2F)CC1

pIC50 (Autotaxin [1]): 6.30
pIC50 (Autotaxin [2]): 7.73
Structure (SMILES): O=C(NO)c1ccc(NC(=O)C2CCN(C(=O)OCc3cc(Cl)cc(Cl)c3)CC2)cc1

pIC50 (Autotaxin [1]): 6.67
pIC50 (Autotaxin [2]): 8.48
Structure (SMILES): O=C(Nc1ccc(CP(=O)(O)O)cc1)C1CCN(C(=O)OCc2ccccc2Cl)CC1

pIC50 (Autotaxin [1]): 7.26
pIC50 (Autotaxin [2]): 8.43
Structure (SMILES): O=C(NC1CCN(C(=O)OCc2cc(Cl)cc(Cl)c2)C1)c1nc(CP(=O)(O)O)cs1 (centres undefined)

AUC/dose (Rattus norvegicus [3]): 1.35 kg·h/L
Cmax/dose (Rattus norvegicus [4]): 16.6 kg/L
pIC50 (Autotaxin [1]): 8.66
clearance [5]: 13.3 mL/min/kg
pIC50 (Autotaxin [6]): 8.10
AUC/dose (Rattus norvegicus [7]): 1.53 kg·h/L
Vd [8]: 2.24 L/kg
Tmax [9]: 1.2 min
Tmax [10]: 1.2 min
Vd [11]: 0.33 L/kg
half-life [12]: 17.4 min
AUC [13]: 3050 ng·h/mL
pIC50 (Autotaxin [14]): 6.87
remaining at 1 h, 5 µM [15]: > 99.9%
AUC [16]: 12700 ng·h/mL
Cmax [17]: 33100 ng/mL
half-life [18]: 42.6 min
half-life at 5 µM [19]: > 60 min
clearance [20]: 12.2 mL/min/kg
clearance [21]: 11.3 mL/min/kg
Cmax/dose (Rattus norvegicus [22]): 11.7 kg/L
pIC50 (Autotaxin [23]): 8.89
pIC50 (Autotaxin [2]): 8.91
Cmax [24]: 117 µg/mL
half-life [25]: 245 min
Cmax/dose (Rattus norvegicus [26]): 9.98 kg/L
half-life at 5 µM [27]: > 60 min
AUC/dose (Rattus norvegicus [28]): 1.27 kg·h/L
remaining at 1 h, 5 µM [29]: > 99.9%
Cmax [30]: 200 µg/mL
AUC [31]: 27000 ng·h/mL
Vd [32]: 0.15 L/kg
Tmax [33]: 1.2 min
Structure (SMILES): O=C(Nc1ccc(CP(=O)(O)O)cc1)C1CCN(C(=O)OCc2cc(Cl)cc(Cl)c2)CC1
